Data reported in US10238688B2, “Combination therapies for bladder cancer” (GENEDIA BIOTECH CO. LTD., priority 2015, dated 2019).

Experiments:
Myc/Max pathway = test: Cignal Finder dual-luciferase pathway reporter, Myc/Max; type: cell-based, human; details: for Relative activity, Myc/Max reporter: luc/Renluc relative to negative control reporter, single drug at 4 folds vs EH/Ci/Mi combination
Description: The pathway analysis was performed with Qiagen's Cignal Finder Pathway Reporter Array systems according to the manufacturer's instructions. The pathway-focused dual-luciferase reporter construct was a mixture of an inducible transcription factor responsive firefly luciferase reporter and constitutively expressing renilla construct. Transcriptional response element (TRE) sequence response elements to each specific transcriptional factor triggered by the different signaling pathways are positioned before the TATA box of firefly luciferase reporter gene. The extent of activity of the reporter reflects the level of activity of the particular signaling pathway. CMV controlled renilla expression vector is co-transfected into the cell as an internal control. Non-inducible reporter construct that lacks the transcriptional factor binding sequence and could not be induced by any transcription factors is used as a negative control. Cells transfected with CMV directed firefly luciferase reporter gene serve as a positive control. Briefly, cells seeded in 6-well plates were transfected with Cignal finder pathway arrays according to the manufacturer's instructions (Qiagen). Then cells were seeded onto 96-well plates. […] After 6 h of incubation with the different drugs at 37° C., cells were lysed and a dual luciferase assay (for firefly and renilla luciferase) was performed using a PromegaGloMax 20/20 illuminometer. The firefly luciferase activities were normalized over the renilla luciferase activities after background activity determined by luciferase activities of negative controls was subtracted. A triple test of cell survival under these drug doses was also performed by MTT assay following 18 h incubation at 37° C. […]

[1] = tested on: Cell Cycle/pRb-E2F pathway; test: Cignal Finder dual-luciferase pathway reporter, Cell Cycle/pRb-E2F; type: cell-based, human; set-up: key to Relative activity, Cell Cycle/pRb-E2F reporter: firefly/renilla ratio, background (negative control) subtracted; details: for Relative activity, Cell Cycle/pRb-E2F reporter: luc/Renluc relative to negative control reporter, single drug at 4 folds vs EH/Ci/Mi combination
Description: The pathway analysis was performed with Qiagen's Cignal Finder Pathway Reporter Array systems according to the manufacturer's instructions. The pathway-focused dual-luciferase reporter construct was a mixture of an inducible transcription factor responsive firefly luciferase reporter and constitutively expressing renilla construct. Transcriptional response element (TRE) sequence response elements to each specific transcriptional factor triggered by the different signaling pathways are positioned before the TATA box of firefly luciferase reporter gene. The extent of activity of the reporter reflects the level of activity of the particular signaling pathway. CMV controlled renilla expression vector is co-transfected into the cell as an internal control. Non-inducible reporter construct that lacks the transcriptional factor binding sequence and could not be induced by any transcription factors is used as a negative control. Cells transfected with CMV directed firefly luciferase reporter gene serve as a positive control. Briefly, cells seeded in 6-well plates were transfected with Cignal finder pathway arrays according to the manufacturer's instructions (Qiagen). Then cells were seeded onto 96-well plates. Ci (6000 ng/mL), Mi (800 ng/mL), or EH (1000 ng/mL) and Ci/Mi/EH combination (Ci, 1500 ng/mL, Mi, 800 ng/mL and EH, 1000 ng/m L) were then added to the cells 24 h post-transfection. After 6 h of incubation with the different drugs at 37° C., cells were lysed and a dual luciferase assay (for firefly and renilla luciferase) was performed using a PromegaGloMax 20/20 illuminometer. The firefly luciferase activities were normalized over the renilla luciferase activities after background activity determined by luciferase activities of negative controls was subtracted. A triple test of cell survival under these drug doses was also performed by MTT assay following 18 h incubation at 37° C. […]

| SMILES | relative drug trigged pathway activity over the no-drug level, Myc/Max (Myc/Max pathway; 5637 cells) [fold] | Relative activity, Myc/Max reporter (Myc/Max pathway; 5637 cells) | relative drug trigged pathway activity over the no-drug level, Myc/Max (Myc/Max pathway; Biu87 cells) [fold] | Relative activity, Myc/Max reporter (Myc/Max pathway; Biu87 cells) | digitalized pathway activity, Myc/Max (Myc/Max pathway; H-bc cells) | relative drug trigged pathway activity over the no-drug level, Myc/Max (Myc/Max pathway; H-bc cells) [fold] | Relative activity, Myc/Max reporter (Myc/Max pathway; H-bc cells) | digitalized pathway activity, Myc/Max (Myc/Max pathway; SV-HUC-1 cells) | relative drug trigged pathway activity over the no-drug level, Myc/Max (Myc/Max pathway; SV-HUC-1 cells) [fold] | Relative activity, Myc/Max reporter (Myc/Max pathway; SV-HUC-1 cells) | Relative activity, Myc/Max reporter (Myc/Max pathway; UM-UC-3 cells) | relative drug trigged pathway activity over the no-drug level, Myc/Max (Myc/Max pathway; Um-Uc-3 cells) [fold] | relative drug trigged pathway activity over the no-drug level, Cell Cycle/pRb-E2F ([1]; 5637 cells) [fold] | Relative activity, Cell Cycle/pRb-E2F reporter ([1]; 5637 cells) | relative drug trigged pathway activity over the no-drug level, Cell Cycle/pRb-E2F ([1]; Biu87 cells) [fold] | Relative activity, Cell Cycle/pRb-E2F reporter ([1]; Biu87 cells) | relative drug trigged pathway activity over the no-drug level, Cell Cycle/pRb-E2F ([1]; H-bc cells) [fold] | Relative activity, Cell Cycle/pRb-E2F reporter ([1]; H-bc cells) | relative drug trigged pathway activity over the no-drug level, Cell Cycle/pRb-E2F ([1]; SV-HUC-1 cells) [fold] | Relative activity, Cell Cycle/pRb-E2F reporter ([1]; SV-HUC-1 cells) | also measured |
| --- | --- | --- | --- | --- | --- | --- | --- | --- | --- | --- | --- | --- | --- | --- | --- | --- | --- | --- | --- | --- | --- |
| COc1cccc2c1C(=O)c1c(O)c3c(c(O)c1C2=O)C[C@@](O)(C(=O)CO)C[C@@H]3[C@@H]1C[C@H](N)[C@@H](O)[C@H](C)O1 [EH, (8R,10S)-10-((2S,4S,5R,6S)-4-amino-5-hydroxy-6-methyltetrahydro-2H-pyran-2-yl)-6,8,11-trihydroxy-8-(2-hydroxyacetyl)-1-methoxy-7,8,9,10-tetrahydrotetracene-5,12-dione] | 1.5 | 16.61 | 1.66 | 13.61 | 0 (null (0) if neither of the above holds) | 1.37 | 17.62 | 0 (null (0) if neither of the above holds) | 1.13 | 125.00 | 25.48 | 0.44 | 5.15 | 4.67 | 3.95 | 2.24 | 1.47 | 4.44 | 2.45 | 12.00 | digitalized pathway activity, Cell Cycle/pRb-E2F ([1]; H-bc cells): 0 (null (0) if neither of the above holds); Relative activity, Cell Cycle/pRb-E2F reporter ([1]; UM-UC-3 cells): 17.25; relative drug trigged pathway activity over the no-drug level, Cell Cycle/pRb-E2F ([1]; Um-Uc-3 cells): 2.91 fold |
| COC12C(COC(N)=O)C3=C(C(=O)C(C)=C(N)C3=O)N1CC1NC12 (stereo not drawn) [Mi, [6-Amino-8a-methoxy-5-methyl-4,7-dioxo-1,1a,2,4,7,8,8a,8b-octahydroazireno [2′,3′:3,4]pyrrolo[1,2-a]indol-8-yl]methyl carbamate] | 1.97 | 21.77 | 1.16 | 9.49 | 0 (null (0) if neither of the above holds) | 0.75 | 9.86 | 0 (null (0) if neither of the above holds) | 1.45 | 160.00 | 22.41 | 0.38 | 2.64 | 2.40 | 1.46 | 0.83 | 0.3 | 0.92 | 1.39 | 6.80 | digitalized pathway activity, Myc/Max (Myc/Max pathway; Biu87 cells): 0 (null (0) if neither of the above holds); digitalized pathway activity, Cell Cycle/pRb-E2F ([1]; Biu87 cells): 0 (null (0) if neither of the above holds); digitalized pathway activity, Cell Cycle/pRb-E2F ([1]; SV-HUC-1 cells): 0 (null (0) if neither of the above holds); Relative activity, Cell Cycle/pRb-E2F reporter ([1]; UM-UC-3 cells): 2.17; relative drug trigged pathway activity over the no-drug level, Cell Cycle/pRb-E2F ([1]; Um-Uc-3 cells): 0.37 fold |
